Assay results as given in ChEMBL document CHEMBL1201862, “PubChem BioAssay data set” (2004).
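96-well plates; 48 h exposure; 5 concentrations. Endpoints by linear interpolation between flanking doses. Not reached: highest tested concentration assigned. GI50: concentration for 50% inhibition of growth.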 The source made the active and inactive calls. Cut-off read from the data, not from the text of the source: active = GI50 up to about 1.1 µM and inactive = higher.

How the values were obtained:
Assay in all cases: growth of human tumour cells (NCI), 48 h
SF-268 = system: SF-268
MOLT-4 = system: MOLT-4
OVCAR-4 = system: OVCAR-4
CCRF-CEM = system: CCRF-CEM
786-0 = system: 786-0
A549 = system: A549
A498 = system: A498
UO-31 = system: UO-31
OVCAR-5 = system: OVCAR-5
HCT-116 = system: HCT-116
EKVX = system: EKVX
OVCAR-8 = system: OVCAR-8
CAKI-1 = system: CAKI-1
U-251 = system: U-251
RXF 393 = system: RXF 393

Measured: GI50

O=c1c2ccccc2nc(-c2ccccc2)n1NC1OC(CO)C(O)C(O)C1O (stereo not drawn)
inactive: SF-268 > 100 µM | MOLT-4 > 100 µM | OVCAR-4 > 100 µM | CCRF-CEM > 100 µM | 786-0 > 100 µM | A549 > 100 µM | A498 > 100 µM | UO-31 > 100 µM | OVCAR-5 > 100 µM | HCT-116 > 100 µM | EKVX > 100 µM | OVCAR-8 > 100 µM | CAKI-1 > 100 µM | U-251 > 100 µM

COc1ccc(OC)c(NC(=O)C(=O)NNC(=O)c2sc(NNC(C)=O)nc2C)c1
inactive: SF-268 27.3 µM | MOLT-4 18.7 µM | OVCAR-4 26.3 µM | CCRF-CEM 16.9 µM | 786-0 35.6 µM | A549 31.2 µM | A498 8.3 µM | UO-31 45.4 µM | OVCAR-5 72.4 µM | HCT-116 28.6 µM | EKVX 37.5 µM | OVCAR-8 34.9 µM | CAKI-1 41.3 µM | U-251 36.6 µM

O=c1c2ccccc2nc(-c2ccccc2)n1NC(=S)Nc1ccc(Cl)cc1[N+](=O)[O-]
inactive: SF-268 > 100 µM | MOLT-4 73.3 µM | OVCAR-4 88.5 µM | CCRF-CEM 62.4 µM | 786-0 > 100 µM | A549 67.3 µM | A498 94 µM | UO-31 42.2 µM | OVCAR-5 > 100 µM | HCT-116 54.2 µM | RXF 393 22.9 µM | OVCAR-8 > 100 µM | CAKI-1 > 100 µM | U-251 80.4 µM

CSc1ccc(/C=C2/C[N+](C)(C)C/C(=C/c3ccc(SC)cc3)C2=O)cc1
inactive: SF-268 10.5 µM | MOLT-4 5.31 µM | CCRF-CEM 3.56 µM | 786-0 13.7 µM | A549 21.9 µM | UO-31 > 100 µM | OVCAR-5 23.4 µM | EKVX 19.1 µM | RXF 393 17 µM | OVCAR-8 8.89 µM | U-251 2.54 µM

COc1cccc(N2C(=O)[C@H]3CC(C)c4c([nH]c5ccccc45)[C@H]3C2=O)c1 (stereo partly drawn)
inactive: SF-268 > 100 µM | MOLT-4 74.1 µM | CCRF-CEM 64.4 µM | 786-0 21.7 µM | A549 41.3 µM | A498 89.7 µM | UO-31 84.7 µM | EKVX > 100 µM | RXF 393 13.9 µM | OVCAR-8 50 µM | CAKI-1 39.6 µM | U-251 38.5 µM

NC(=O)c1ccc([N+](=O)[O-])cc1
inactive: SF-268 > 100 µM | MOLT-4 > 100 µM | CCRF-CEM > 100 µM | 786-0 > 100 µM | A549 > 100 µM | A498 > 100 µM | UO-31 > 100 µM | EKVX > 100 µM | RXF 393 > 100 µM | OVCAR-8 > 100 µM | CAKI-1 > 100 µM | U-251 > 100 µM

Cn1nc(-c2ccccc2)c(C(=O)/C=C/c2ccc(F)cc2)c(N2CCCC2)c1=O
inactive: SF-268 14.3 µM | MOLT-4 4.41 µM | CCRF-CEM 5.36 µM | 786-0 13 µM | A549 15.1 µM | UO-31 > 10 µM | HCT-116 6.5 µM | EKVX 19.2 µM | RXF 393 8.2 µM | OVCAR-8 15.1 µM | CAKI-1 12.2 µM | U-251 13.2 µM

O=C(c1ccc(Cl)cc1Cl)N(/N=C/C=C/c1ccccc1)c1nnc(-c2ccccc2)c(-c2ccccc2)n1
inactive: SF-268 > 100 µM | MOLT-4 70 µM | OVCAR-4 > 100 µM | CCRF-CEM > 100 µM | 786-0 > 100 µM | A549 > 100 µM | A498 > 100 µM | UO-31 76.4 µM | OVCAR-5 > 100 µM | EKVX > 100 µM | RXF 393 > 100 µM | OVCAR-8 > 100 µM | U-251 > 100 µM

COc1ccccc1NC(=O)C1=C(C)NC(C)=C(C(=O)Nc2ccccc2OC)C1/C=C/c1ccccc1
inactive: SF-268 92.9 µM | MOLT-4 39.4 µM | OVCAR-4 20.1 µM | CCRF-CEM 49.1 µM | 786-0 > 100 µM | A549 80.9 µM | A498 > 100 µM | UO-31 > 100 µM | OVCAR-5 > 100 µM | HCT-116 48.3 µM | EKVX 89.3 µM | OVCAR-8 > 100 µM | CAKI-1 > 100 µM | U-251 > 100 µM

COCCN1C2=CCCCC2=Nc2c(N)nc(N)nc21
inactive: SF-268 > 100 µM | MOLT-4 > 100 µM | CCRF-CEM > 100 µM | 786-0 > 100 µM | A549 > 100 µM | A498 > 100 µM | UO-31 > 100 µM | OVCAR-5 > 100 µM | HCT-116 > 100 µM | RXF 393 > 100 µM | OVCAR-8 > 100 µM | CAKI-1 > 100 µM | U-251 > 100 µM

CCCCC1CC(c2ccc(Cl)cc2)=NO1 (stereo not drawn)
inactive: SF-268 > 100 µM | MOLT-4 > 100 µM | OVCAR-4 > 100 µM | CCRF-CEM > 100 µM | 786-0 > 100 µM | A549 > 100 µM | A498 > 100 µM | UO-31 > 100 µM | OVCAR-5 > 100 µM | HCT-116 > 100 µM | EKVX > 100 µM | OVCAR-8 > 100 µM | CAKI-1 > 100 µM | U-251 > 100 µM

c1cc2[se][se]c3c4cccc5[se][se]c(c(c1)c23)c54
inactive: SF-268 > 100 µM | MOLT-4 > 100 µM | OVCAR-4 > 100 µM | CCRF-CEM > 100 µM | 786-0 > 100 µM | A549 > 100 µM | A498 > 100 µM | UO-31 > 100 µM | OVCAR-5 > 100 µM | HCT-116 > 100 µM | RXF 393 > 100 µM | OVCAR-8 > 100 µM | CAKI-1 > 100 µM | U-251 > 100 µM

CC#CC1C2CCCC1(CSc1ccccc1)NC(=O)O2 (stereo not drawn)
inactive: SF-268 > 100 µM | MOLT-4 30.3 µM | OVCAR-4 > 100 µM | 786-0 > 100 µM | A549 > 100 µM | A498 > 100 µM | UO-31 > 100 µM | OVCAR-5 > 100 µM | HCT-116 > 100 µM | EKVX > 100 µM | RXF 393 > 100 µM | OVCAR-8 > 100 µM | CAKI-1 > 100 µM | U-251 > 100 µM

COc1ccc(CCc2cc(OC)c(O)c(OC)c2)cc1
inactive: SF-268 73.5 µM | MOLT-4 35.7 µM | OVCAR-4 81.5 µM | CCRF-CEM 77.1 µM | 786-0 > 100 µM | A549 47.1 µM | UO-31 42.6 µM | OVCAR-5 44 µM | HCT-116 59 µM | EKVX > 100 µM | OVCAR-8 > 100 µM | CAKI-1 42 µM | U-251 41.8 µM

COc1ccc(OC)c2c1C(=O)C1CC1(Br)C2=O (stereo not drawn)
inactive: SF-268 > 100 µM | MOLT-4 > 100 µM | OVCAR-4 > 100 µM | CCRF-CEM > 100 µM | 786-0 > 100 µM | A549 > 100 µM | A498 > 100 µM | UO-31 > 100 µM | OVCAR-5 > 100 µM | HCT-116 > 100 µM | EKVX 73.1 µM | OVCAR-8 > 100 µM | CAKI-1 > 100 µM | U-251 > 100 µM
